Measured values: patent US10968232B2 (Merck Sharp & Dohme Corp., priority 2016, dated 2021)

biological target: T1, human GPR40 (Homo sapiens, UniProt O14842); test: Inositol Phosphate Turnover (IP1) Assay; format: cell-based; details: HEK cells stably expressing human GPR40; CisBio IP-One kit; 60 minutes at 37 degrees; read-out: Human IP1 EC50
T1 construct: expressed in transfected cells
Description: Human GPR40 stable cell-lines were generated in HEK cells. The expression plasmids were transfected using lipofectamine (Life Technologies) following manufacturer's instructions. Stable cell-lines were generated following drug selection and single cell cloning. The assay was performed in 384-well format. HEK cells stably expressing human GPR40 were plated at 7500 cells per well in growth medium (DMEM/10% fetal calf serum). Cell plates were then incubated 16 hours at 37 degrees in a 5% CO2 incubator. Measurement of Inositol Phosphate Turnover (IP1) was performed using the CisBio IP-One kit (Part number 62IPAPEB). After the 16 hour incubation, the growth media was removed by centrifugation using the BlueWasher (AusWasher GUI Ver. v1.0.1.8) Protocol #21-“Light Dry” and 10 ul of stimulation buffer (prepared as described in the kit) was added to each well. In a separate plate, compounds were diluted in DMSO (200-fold over the final concentration in the assay well) and 50 nl was acoustically transferred to the appropriate well in the assay cell plate. The plates were then incubated for 60 minutes at 37 degrees in a 5% CO2 incubator. 10 ul of detection buffer (also prepared as described in the IP-One kit) was added to each well and the plates were incubated at room temperature for 60 minutes in the dark. The plates were then read in a Perkin Elmer EnVision or equivalent reader able to measure FRET. […] Data was normalized to % activity using a reference compound and EC50s determined using a standard 4-parameter fit.

T1 sequence (O14842 whole entry): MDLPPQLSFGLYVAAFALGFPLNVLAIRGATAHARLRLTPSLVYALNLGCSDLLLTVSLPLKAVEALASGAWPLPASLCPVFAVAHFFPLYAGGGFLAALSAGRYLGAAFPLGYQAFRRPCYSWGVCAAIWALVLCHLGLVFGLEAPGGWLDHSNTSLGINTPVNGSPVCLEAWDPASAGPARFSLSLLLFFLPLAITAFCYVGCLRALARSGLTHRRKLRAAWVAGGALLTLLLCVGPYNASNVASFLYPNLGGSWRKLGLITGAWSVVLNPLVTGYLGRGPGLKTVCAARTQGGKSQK

**Q.** For `C[C@H](C(=O)O)[C@H](c1ccc2c(c1)OC1(CC2)CCN(c2ccccc2C(F)(F)F)CC1)C1CC1` [Example 35, sodium (2S,3R)-3-cyclopropyl-2-methyl-3-(1′-(2-(trifluoromethyl)phenyl)-spiro[chroman-2,4′-piperidin]-7-yl)propanoate], which EC50 is on record?
**A.** 5.79 nM

**Q.** For `C[C@H](C(=O)O)[C@H](c1ccc2c(c1)OC1(CCCN(Cc3cc(C(F)(F)F)ccc3C(F)(F)F)CC1)CC2)C1CC1` (single isomer, unassigned) [Example 48, sodium (2S,3R)-3-((R or S)-1-(2,5-bis (trifluoromethyl)benzyl)spiro[azepane-4,2′-chroman]-7′-yl)-3-cyclopropyl-2-methyl-propanoate], which EC50 is on record?
**A.** 1.06 nM

**Q.** How did the EC50 turn out when `CC(c1nc(C(F)(F)F)ccc1Cl)N1CCC2(CCc3ccc([C@H](C4CC4)[C@H](C)C(=O)O)cc3O2)CC1` (single isomer, unassigned) [Example 31] was run?
**A.** 49.9 nM

**Q.** Which EC50 does the source give for `C[C@H](C(=O)O)[C@H](c1ccc2c(c1)OC1(CC2)CCC(N(C)c2cc(C(F)(F)F)ccc2C(F)(F)F)CC1)C1CC1` (stereo partly drawn) [Example 70, (2S,3R)-3-(4′-((2,5-bis(trifluoromethyl)phenyl) (methyl)amino)spiro [chroman-2,1′-cyclohexan]-7-yl)-3-cyclopropyl-2-methylpropanoic acid] here?
**A.** 1.74 nM

**Q.** Which EC50 does the source give for `Cc1cc(-c2ccc(OC(F)(F)F)c(C(C)N3CCC4(CCc5ccc([C@H](C6CC6)[C@H](C)C(=O)O)cc5O4)CC3)c2)n(C)n1` (mixture of isomers) [Example 114, (2S,3R)-3-cyclopropyl-3-(1′-((RS)-1-(5-(1,3-dimethyl-1H-pyrazol-5-yl)-2-(trifluoromethoxy)phenyl)eth-yl)spiro[chroman-2,4′-piperidin]-7-yl)-2-methylpropanoic acid] here?
**A.** 91.6 nM

**Q.** How did the EC50 turn out when `C[C@H](C(=O)O)[C@H](c1ccc2c(c1)OC1(CC2)CC(NCc2cc(C(F)(F)F)ccc2C(F)(F)F)C1)C1CC1` (single isomer, unassigned) [Example 95] was run?
**A.** 48.6 nM

**Q.** For `C[C@H](C(=O)O)[C@H](c1ccc2c(c1)OC1(CC2)CCN(c2cccc3c2c(C(F)(F)F)nn3C)CC1)C1CC1` [Example 36, (2S,3R)-3-cyclopropyl-2-methyl-3-(1′-(1-methyl-3-(trifluoromethyl)-1H-indazol-4-yl)spiro[chroman-2,4′-piperidin]-7-yl)propanoic Acid], which EC50 is on record?
**A.** 4.78 nM

**Q.** Which EC50 does the source give for `CC(c1cc(F)cc(F)c1Cl)N1CCC2(CCc3ccc([C@H](C4CC4)[C@H](C)C(=O)O)cc3O2)CC1` (single isomer, unassigned) [Example 18] here?
**A.** 46.1 nM

**Q.** For `CC(c1cc(F)cc(F)c1Cl)N1CCC2(CCc3ccc([C@H](C4CC4)[C@H](C)C(=O)O)c(F)c3O2)CC1` (single isomer, unassigned) [Example 17, (2S,3R)-3-(1′-((S or R)-1-(2-chloro-3,5-difluorophenyl)ethyl)-8-fluorospiro-[chroman-2,4′-piperidin]-7-yl)-3-cyclopropyl-2-methylpropanoic Acid], which EC50 is on record?
**A.** 37.3 nM

**Q.** Which EC50 does the source give for `C[C@H](C(=O)O)[C@H](c1ccc2c(c1)OC1(CC2)[C@@H]2CC[C@H]1CN([C@H](C)c1cc(C(F)(F)F)ccc1C(F)(F)F)C2)C1CC1` (single isomer, unassigned) [Example 83] here?
**A.** 798 nM

**Q.** For `C[C@H](C(=O)O)[C@H](c1ccc2c(c1)OC1(CC2)CC2(CN([C@@H](C)c3cc(C(F)(F)F)ccc3C(F)(F)F)C2)C1)C1CC1` [Example 127, (2S,3R)-3-cyclopropyl-3-(2,2-(S)-2-(1-(2,5-bis(trifluoromethyl)phen-yl)ethyl)-2-azaspiro[3.3]-heptane-chroman-7-yl)-2-methylpropanoic acid], which EC50 is on record?
**A.** 0.46 nM

**Q.** `Cc1nocc1-c1ccc(OC(F)(F)F)c(C(C)N2CCC3(CCc4ccc([C@H](C5CC5)[C@H](C)C(=O)O)cc4O3)CC2)c1` (single isomer, unassigned) [Example 115, (2S,3R)-3-cyclopropyl-2-methyl-3-(1′-((R or S)-1-(5-(3-methylisoxazol-4-yl)-2-(trifluoromethoxy)phenyl)eth-yl)spiro[chroman-2,4′-piperidin]-7-yl)propanoic acid] was tested. Which EC50 did it give?
**A.** 41.7 nM
